Data set [1] is described as follows: Solubility in Cyclomethicone. The data set is classed as physicochemical. The settings on record: at RT.
Data set [2] in a line: UV absorption (λmax, E 1/1). It is filed as physicochemical. The settings on record: for E 1/1: at λmax.

Consider `CCN(CC)c1ccc(C(=O)c2ccccc2C(=O)OCCC[Si](C)(C)C)c(O)c1` [Example A1], for which, in data set [1], the “solubility in Cyclomethicone” value was 1.8%. In data set [2], the λmax is 350 nm and the “E 1/1” value stood at 822.

With `CCN(CC)c1ccc(C(=O)c2ccccc2C(=O)OCCOC(=O)C(C)C[Si](C)(O[Si](C)(C)C)O[Si](C)(C)C)c(O)c1` (centres unmarked) [Example A2], the “solubility in Cyclomethicone” value in data set [1] is listed as above 20%. Further, in data set [2], the λmax turned out to be 350 nm and the “E 1/1” value is listed as 571.

As for `CCN(CC)c1ccc(C(=O)c2ccccc2C(=O)OCCOC(=O)C(C)C[Si](C)(O[Si](C)(C)C)O[Si](C)(C)C)c(O)c1` (centres unmarked) [Example A3], in data set [2], the λmax is given as 357 nm and the “E 1/1” value was 606.

Source of the values: patent US7999128B2, “Hydroxybenzophenone derivatives” (BASF SE, priority 2006, dated 2011).
